Values after ≈ are worked out from the molar mass of the structure shown. Where a SMILES comes first, the peptide text is derived from it. [ ]: non-standard residue; d: D form. 2Nal = N[C@@H](Cc1ccc2ccccc2c1)C(=O)O
What was measured:
Type in all cases: cell-based
[1] = system: Escherichia coli strain (ATCC 25922); assay: microbe, parasite or virus in culture; conditions: ATCC25922, E. coli ATCC 25922, LYM control, read-out: Minimum inhibitory concentration (MIC)
Method: (§1) Escherichia coli strain (ATCC 25922), Staphylococcus aureus subsp strain (ATCC 25923, methicillin-resistant), and Pseudomonas aeruginosa Migula strain (ATCC 27853, ampicillin-resistant) were used to test the antibacterial activity of the peptides. Bacteria were cultured in sterilized Mueller-Hinton (MH) culturing medium at 200 rpm and 37° C. for 8 hours.
(§2) After 8 hours culture, concentration of the inoculums were determined by measuring absorbance of optical density at 600 nm (OD 600=1, equal to approximately 10^8 CFU/mL) with UV/Visible spectrophotometer.
(§3) The antibacterial activities were determined by the standard broth microdilution method of National Committee for Clinical Laboratory Standards with the LYM broth. The LYM broth contains 5.4 mM KCl, 5.6 mM Na2HPO4, 0.5 mM MgSO4, and 1.0 mM sodium citrate. In addition, 0.4 mg of ZnCl2, 2.0 mg of FeCl3. 6H2O, 0.1 mg of CuSO4. 5H2O, 0.1 mg of MnSO4.H2O, 0.1 mg of Na2B4O7.10H2O, 700 mg of amino acid mixtures without tryptophan (Clontech), and 20 mg of L-Tryptophan were added per liter of medium. A vitamin mixture (100×, Sigma) and glucose at final concentration of 2% were also added.
(§4) 1 μl peptide solutions (ranging from 5000 μg/ml to 78 μg/ml in serial dilution) was prepared and mixed with 99 μl inoculum (5×10^5 CFU/ml) in polypropylene 96-well plate. The turbidity at OD 600 nm was measured by ELISA plate reader (Thermo Max, Molecular Devices, Sunnyvale, Calif.). The absorbance of culture medium and inoculum suspension without peptides were used as the negative and positive control, respectively. The minimum inhibitory concentration (MIC) value is the lowest concentration of peptide at which there is no obvious growth (equal or more than 90%). […] All peptides were tested in triplicate.

[2] = system: Staphylococcus aureus subsp strain (ATCC 25923, methicillin-resistant); assay: microbe, parasite or virus in culture
Method: as §1, §2, §3, §4

human fibroblast (HFW) = assay: MTT cytotoxicity to normal fibroblasts; conditions: MTT assay
Method: Human lung cancer line PC9 and A549, oral squamous cell carcinoma cell line OECM-1 were cultured in RPMI medium supplemented with 10% fetal bovine serum and antibiotic. Human tongue carcinoma cell line SAS, oral cancer cell line C9, and human diploid fibroblast (HFW) were cultured in DMEM medium supplemented with 10% fetal bovine serum and antibiotic. Cells were cultured in a humidified incubator containing 5% CO2 at 37° C.
The MTT assay was employed to determine the in vitro cytotoxicity. All cancer cell lines were seeded in 96-well plate with concentration 5000 cells/100 μl/well and incubated for 24 hours. HFW was seeded with 8000 cells/100 μl/well.
After medium was removed, 100 μl fresh medium containing peptide (ranging from 50 μM to 3.13 μM, HFW was treated with 75 μM and 100 μM peptide additionally) was added to the wells. Following 3, 12 or 24 hour incubation, fresh medium with MTT (0.5 mg/ml) was replaced and incubated for 3 hours. After medium/MTT was removed, DMSO was added at 100 μl for dissolving the formazan crystal. Cell survival rate was calculated by measuring the absorbance at 540 nm using Multi-labeled Microplate Reader (VICTOR3). For cancer cells, medium mixed with H2O2 (aq) represented positive control (all cells died) while medium only represented negative control. For normal cells, medium only represented positive control (all cells lived) while medium mixed with H2O2 (aq) represented negative control (all cells died).
The cytotoxicities of S1 and its analogs on human lung cancer cells (i.e, PC9, PC9-G and A549), human oral cancer cells (i.e, C9, OECM-1, and SAS), and human fibroblast (HFW) were evaluated by MTT assay for 3, 12 and 24 hours.

Row | Molecule | MIC [1] [µg/mL] | MIC ([2]; Staphylococcus aureus, ATCC25923, S. aureus ATCC 25923, LYM control, read-out: Minimum inhibitory concentration (MIC)) [µg/mL] | degrees of cytotoxicities to HFW (rank order) (human fibroblast (HFW)) | Minimum inhibitory concentration (MIC) ([2]; ATCC 25923, 8 h) [µg/mL]
1 | CC1(C)S[C@@H]2[C@H](NC(=O)[C@H](N)c3ccccc3)C(=O)N2[C@H]1C(=O)O [AP, Ampicillin, reference compound] | 25 (≈ 71.5 µM) | 3.1 (≈ 8.87 µM) |  | 
2 | CC(=O)N[C@@H](CCCCN)C(=O)N[C@@H](CCCCN)C(=O)N[C@@H](CCCCN)C(=O)N[C@@H](CCCCN)C(=O)N[C@@H](CCCCN)C(=O)N[C@@H](CCCCN)C(=O)N[C@@H](Cc1ccc2ccccc2c1)C(=O)N[C@@H](Cc1ccc2ccccc2c1)C(=O)N[C@@H](CCCCN)C(=O)N[C@@H](CCCCN)C(=O)N[C@@H](Cc1c[nH]c2ccccc12)C(=O)N[C@@H](CCCNC(=N)N)C(=O)N[C@@H](CCCCN)C(=O)N[C@@H](Cc1c[nH]c2ccccc12)C(=O)N[C@@H](CC(C)C)C(=O)N[C@@H](C)C(=O)N[C@@H](CCCCN)C(=O)N[C@@H](CCCCN)C(N)=O [K6-Nal2-S1, Ac-KKKKKK-Nal-Nal-KKWRKWLAKK-NH2] (Ac-KKKKKK[2Nal][2Nal]KKWRKWLAKK-NH2) |  |  | S1 peptide<K4R2-Nal2-S1 peptide<K6-Nal2-S1 peptide<Nal2-S1 peptide | 
3 | CC(=O)N[C@@H](Cc1ccc2ccccc2c1)C(=O)N[C@@H](Cc1ccc2ccccc2c1)C(=O)N[C@@H](CCCCN)C(=O)N[C@@H](CCCCN)C(=O)N[C@@H](Cc1c[nH]c2ccccc12)C(=O)N[C@@H](CCCNC(=N)N)C(=O)N[C@@H](CCCCN)C(=O)N[C@@H](Cc1c[nH]c2ccccc12)C(=O)N[C@@H](CC(C)C)C(=O)N[C@@H](C)C(=O)N[C@@H](CCCCN)C(=O)N[C@@H](CCCCN)C(N)=O [Nal2-S1, Ac-Nal-Nal-KKWRKWLAKK-NH2] (Ac-[2Nal][2Nal]KKWRKWLAKK-NH2) |  |  | S1 peptide<K4R2-Nal2-S1 peptide<K6-Nal2-S1 peptide<Nal2-S1 peptide | 3.1 (≈ 1.72 µM)
4 | Ac-KKWRKWLAKK-NH2 [S1, Ac-KKWRKWLAKK-NH2, reference compound] |  |  | S1 peptide<K4R2-Nal2-S1 peptide<K6-Nal2-S1 peptide<Nal2-S1 peptide | 

Reference: patent publication US10093699B2, “Peptides with antimicrobial, anticancer and/or wound-healing promoting activities, pharmaceutical compositions containing the same, and use of the peptides with antimicrobial, anticancer and/or wound-healing promoting activities” (priority 2015, dated 2018)
